# Assay results from US20250122193A1, “NOVEL PYRIDOCARBAZOLIUM COMPOUNDS AND MEDICAL USES THEREOF” (MyCural Therapeutics, priority 2021, published 2025).
# Tests used:
# in vivo = settings: mouse, plasma, ip, 6.25 mg/kg
# Procedure: Blood and brains were collected from three to four mice per group at 0, 1, 2, 4 and 24 hours following injection of 6.25 mg/kg ToM. Plasma samples were extracted using protein precipitation. Brain samples were extracted by homogenization in acetonitrile:DMSO, 95:5 using a gentleMACS Dissociater and gentleMACS™ M Tubes. The protein in the mouse plasma samples was removed by protein precipitation with acetonitrile containing the internal standard. After protein precipitation the study samples were centrifuged, and the resulting supernatant was analyzed. The acetonitrile:DMSO from the brain sample homogenates were spiked with the internal standard and then analyzed. All samples were analyzed by first separating them by reversed phase gradient LC and subsequently detecting them using positive electrospray ionization and multiple reaction monitoring (MRM).
# First, we performed a pharmacokinetic study of the behavior of the molecule in mice.
# [1] = test system: normal human peripheral blood lymphocytes; assay: apoptosis assay (Cell Death Detection ELISA), peripheral blood lymphocytes; assay type: cell-based; settings: 5 μM, 24 and 48 hours
# Procedure: (§1) FIG. 4: MYCMI-7 induces apoptosis in malignant cells and growth arrest in normal cells. A) Cell cycle distribution analysis by flow cytometry of MYC-regulated P493-6 cells and normal rat embryo fibroblasts (REFs). Left panel, P493-6 synchronized in G0 by 24 hours treatment of […] doxycycline. Doxycycline was removed and the cells were harvested 48 hours after the addition of fresh medium containing DMSO or 5 μM MYCMI-7. Right panel, flow cytometry analysis of normal REFs treated with DMSO or 5 μM MYCMI-7. B) Apoptosis assay using the Cell Death Detection ELISA^plus kit. Left panel, immortalized Rat1 fibroblasts with different MYC status after 24 hours of 5 μM MYCMI-7 treatment, middle panel and right panels, normal REFs and normal peripheral blood lymphocytes, respectively, after 24 and 48 hours of 5 μM MYCMI-7 treatment. C) Measurement of viability and apoptosis by Apo-Tox Glo Triplex assay in A375 melanoma cells after 3 days of treatment with MYCMI-7 with the indicated concentrations. […] E) NHDFs treated with 3 μM MYCMI-7 for 72 hrs. Viability was measured by trypan blue exclusion assay. F) Cell growth measured with Cyt62 assay of primary normal human epidermal melanocytes (NHEM) treated for 72 hours with MYCMI-7, G) Viability measured by trypan blue exclusion assay of NHEM after treatment for 72 hours with MYCMI-7.
# [2] = test system: immortalized Rat1 fibroblasts with different MYC status; assay: apoptosis assay (Cell Death Detection ELISA), Rat1 fibroblasts; assay type: cell-based, rat; settings: 24 hours
# Procedure: as §1
# HCT116-TIR-AID cells = assay: auxin-induced TOP2A depletion in HCT116 cells; assay type: cell-based
# MDA-MB-231 = MDA-MB-231 cells in cell culture; assay type: cell-based; settings: Homo sapiens
# Procedure: We next studied the effects of MYCMI-7 in a xenograft model of the human basal-like breast cancer cell line MDA-MB-231. The cells were highly sensitive to MYCMI-7 treatment in cell culture (data not shown), with a GI50 around 1 μM.
# [3] = test system: MYC/BCL-XL-driven acute myeloblastic leukemia
# Procedure: A) Schematic plan of the experiment B) Flow cytometry analysis of GFP^+ leukemic blasts in bone marrow on day 11 (n=5), day 15 (n=5), and at the end point (n=9) after daily i.p. injection of 12.5 mg/kg MYCMI-7, compared with vehicle (n=3) mice. C). H&E and MYC immunohistochemistry (IHC) stainings of spleen sections at the endpoint. Images were taken at 10× magnification. D) quantification of MYC IHC stainings of spleen sections at the endpoint. E) Western blot analysis of cleaved caspase 3 and H3K9me3 expression in spleens at endpoint after treating mice with MYCMI-7 or vehicle (3 mice from each condition). Actin was used as loading control. At the end points, the last injection was done 3 hrs before sacrifice.
# 3×10^5 cells were injected into each recipient C57BL mouse after irradiation (600 rad). AML-like leukemia initiation was confirmed via flow cytometry and Giemsa staining, at day 8 after transplantation. MYCMI-7 were then administrated intraperitoneally daily at a dose of 12.5 mg/kg. Liver, spleen and bone marrow were extracted at day 11, 15 and endpoint for measurement. In addition, body weight of mouse in each group was also collected every 4th day until the endpoint of the experiment.
# We next investigated potential anti-tumor effects of MYCMI-7 in vivo. […] The mice were then sacrificed according to scheme illustrated in FIG. 7A.
# [4] = target: T1, endogenous MYC:MAX interaction (Homo sapiens, UniProt P01106); assay: in situ proximity ligation assay (isPLA), MYC:MAX; assay type: cell-based; settings: 5 μM, 24 hours, MCF-7 cells
# T1 construct: endogenous in cells; host or cells: MCF7
# Procedure: FIG. 1: MYCMI-7 (Compound Example 1) inhibits the MYC:MAX interaction in cells, bind MYC in vitro, and blocks MYC function. A) Molecular structure of MYCMI-7. B-E) split Gaussia luciferase (GLuc) assay. MYC or MYCN and MAX Gluc constructs were co-transfected into HeLa cells together with a firefly luciferase vector. 24 hours post transfection cells were treated with compounds, and after another 17-24 hours cells were harvested and both GLuc and firefly luciferase activities were measured. The mean of three different experiments is shown. […] G) Quantification of isPLA dots. […] J) MYC target gene ODC1 expression after treatment with 5 μM MYCMI-7, quantified by qPCR. […] L) Recombinant MYC bHLHZip protein domain immobilized onto a CM5 chip was subjected to various concentrations of MYCMI-7 and the complex of MYCbHLHZip-MYCMI-7 was measured as response units by SPR. […]
# Briefly, cells were grown on collagen-coated chamber slides (Falcon), treated with compounds and then washed twice with PBS and fixed in ice cold methanol for 5-15 min at room temperature. […] Images were taken using an Axiovert 200M inverted microscope (Zeiss) and fluorescent dots were quantified using semi-automated analysis in ImageJ (http://imagej.net) and averaged to number of dots per cell. […]
# [5] = test system: Purified AML cells from spleens of moribund mice; assay: purified MYC/BCL-XL AML cells in culture; settings: Mus musculus
# ODC1 expression = assay: MYC target gene ODC1 expression by qPCR; assay type: cell-based; settings: 5 μM
# Procedure: FIG. 1: MYCMI-7 (Compound Example 1) inhibits the MYC:MAX interaction in cells, bind MYC in vitro, and blocks MYC function. A) Molecular structure of MYCMI-7. B-E) split Gaussia luciferase (GLuc) assay. MYC or MYCN and MAX Gluc constructs were co-transfected into HeLa cells together with a firefly luciferase vector. 24 hours post transfection cells were treated with compounds, and after another 17-24 hours cells were harvested and both GLuc and firefly luciferase activities were measured. The mean of three different experiments is shown. Treatment with: B) 5 μM of MYCMI-7, 64 μM 10058-F4 or 5 μM JQ1, respectively, C) 6.5 μM MYCMI-7 on cells expressing MYC:MAX GLuc vs. GCN4:GCN4 GLuc, D) 5 μM MYCMI-7 and 5 μM ellipticine. E) 5 μM MYCMI-7 for various time points. F) in situ proximity ligation assay (isPLA). […] MYC:GAL4 was used as negative control in the isPLA assay. G) Quantification of isPLA dots. (H) Co-immunoprecipitation (co-IP) of endogenous MYC and MAX proteins from MCF7 cells after treatment with 5 μM MYCMI-7 at various times. IP=immunoprecipitation; W=western blot. […] J) MYC target gene ODC1 expression after treatment with 5 μM MYCMI-7, quantified by qPCR. […] L) Recombinant MYC bHLHZip protein domain immobilized onto a CM5 chip was subjected to various concentrations of MYCMI-7 and the complex of MYCbHLHZip-MYCMI-7 was measured as response units by SPR. […]
# cyclin E = cyclin E protein expression; assay type: cell-based
# Procedure: For western blot equal amounts of proteins ([…]) were separated on a 4-12% SDS-PAGE gel. Proteins were transferred to Immobilion-P membrane (Millipore) and detected by immunostaining and chemoluminescence (Immobilion western HRP substrate; Millipore). For immunoprecipitations 500-1000 μg of protein was used. […] Briefly, cells were crosslinked with 1% formaldehyde on ice for 6 minutes. Nuclear chromatin was sonicated on ice to fragments from 0.3 kb to 0.5 kb. Nuclear chromatin equivalent to 2.5×10^7 cells was immunoprecipitated with 2 μg antibody.
# [6] = endpoint, compared with vehicle
# T1 sequence (P01106 16-454): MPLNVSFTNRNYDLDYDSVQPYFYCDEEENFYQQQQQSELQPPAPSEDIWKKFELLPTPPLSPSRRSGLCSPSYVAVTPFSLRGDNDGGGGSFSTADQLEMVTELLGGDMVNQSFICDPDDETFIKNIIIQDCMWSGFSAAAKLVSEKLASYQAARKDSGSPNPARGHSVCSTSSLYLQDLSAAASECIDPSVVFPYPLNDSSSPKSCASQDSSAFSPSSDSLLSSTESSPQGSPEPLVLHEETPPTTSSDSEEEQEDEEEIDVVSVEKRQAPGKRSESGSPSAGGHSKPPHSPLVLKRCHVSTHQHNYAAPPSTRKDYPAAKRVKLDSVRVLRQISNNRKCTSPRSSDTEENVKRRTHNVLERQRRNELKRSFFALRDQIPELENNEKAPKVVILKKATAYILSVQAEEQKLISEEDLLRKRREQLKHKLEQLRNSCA
smiles,measurement,setting,value
"CCN(CC)CC[n+]1ccc2c(C)c3[nH]c4ccccc4c3c(C)c2c1 [MYCMI-7, 2-(5,11-Dimethyl-6H-25-pyrido[4,3-b]carbazol-2-yl)-N,N-diethylethanamine bromide]",half-life,in vivo,1.5 h
same,apoptosis,[1],did not induce apoptosis
same,apoptosis,"[2]; MYC knockout HO15.19, 5 μM",not
same,apoptosis,"[2]; TGR1 and HOMyc3, 5 μM",induced apoptosis
same,effect of TOP2A depletion on sensitivity to MYCMI-7 (resazurin assay),HCT116-TIR-AID cells; auxin-induced depletion,does not affect
same,effect of TOP2A depletion on MYCMI-7-induced inhibition of MYC:MAX interactions (isPLA),HCT116-TIR-AID cells; pre-treatment with auxin,no effect
same,GI50,MDA-MB-231,~1 µM
same,body weight,[3]; 12.5 mg/kg daily i.p.,retained their weight
same,mouse survival,[3]; 12.5 mg/kg daily i.p.,no significant difference
same,side effects,[3]; 12.5 mg/kg daily i.p.,no signs of severe side effects
same,GFP positive leukemic cells in bone marrow,"[3]; 12.5 mg/kg daily i.p., day 15",undetectable
same,leukemic cells in bone marrow,"[3]; 12.5 mg/kg daily i.p., end point (20+/−4 days)",around 10%
same,spleen structure,"[3]; endpoint, compared to vehicle",retained a more normal spleen structure
same,MYC expression in leukemic cells (IHC),[3]; [6],strongly reduced
same,cleaved caspase 3 and H3K9me3 in leukemic spleens (western blot),[3]; [6],increased expression
same,inhibition of MYC:MAX interaction (isPLA),[4],strongly inhibited
same,GI50,[5],< 1 µM
same,ODC1 expression,ODC1 expression,reduced ODC1 expression
same,protein expression of cyclin E,cyclin E,unaffected
